Like-named read-outs stand apart in the source and are kept apart here.
What was measured:
[1] = test system: Bel-7402; assay: MTT cytotoxic activity assay, Bel-7402; assay type: cell-based; details: Homo sapiens, 48 h
Protocol: (§1) MCF-7, Hela, and HUCEC were cultured in DMEM (Beijing Solarbio) containing 10% FBS, 100 U/mL penicillin, and […] at 37 °C and 5% CO2. Bel-7402, A549, PC-3M were cultured in RPMI-1640 (Beijing Solarbio) media supplemented with 10% FBS (Wuhan Punuosai Life Science and Technology Co., Ltd., Wuhan, China), 100 U/mL penicillin, and […] at 37 °C and 5% CO2. MTT (Beijing Solarbio) was prepared with PBS at a concentration of 5 mg/mL. All tested drugs were prepared in a solution with a concentration of 20 mM, with dimethyl sulfoxide as the solvent.
(§2) The cells were inoculated into 96-well plates at a density of 5 × 10^3 cells/well. When the cell fusion reached 70–80%, the drug was treated for 48 h. Subsequently, 20 μL MTT was added to each well and incubated at 37 °C with 5% CO2 for 4 h. After that, the medium was discarded and 150 μL DMSO was added to each well. The absorbance was measured at 490 nm with an enzymoleter.

[2] = test system: A549; assay: MTT cytotoxic activity assay, A549; assay type: cell-based; details: Homo sapiens, 48 h
Protocol: as §1, §2

[3] = test system: Hela; assay: MTT cytotoxic activity assay, Hela; assay type: cell-based, human; details: Homo sapiens, HeLa; MTT, 48 h
Protocol: as §1, §2

[4] = test system: MCF-7; assay: MTT cytotoxic activity assay, MCF-7; assay type: cell-based; details: Homo sapiens, MCF7, 48 h
Protocol: as §1, §2

[5] = test system: PC-3M; assay: MTT cytotoxic activity assay, PC-3M; assay type: cell-based; details: Homo sapiens
Protocol: as §1, §2

SMILES: CC(C)C[C@H](NC(=O)OC(C)(C)C)C(=O)Oc1ccc(/C=C/C(=O)c2ccc(OC(=O)[C@H](CC(C)C)NC(=O)OC(C)(C)C)cc2O)cc1 [Compound 1, (E)-4-(3-(4-(((tert-butoxycarbonyl)leucyl)oxy)-2-hydroxyphenyl)-3-oxoprop-1-en-1-yl)phenyl (tert-butoxycarbonyl)leucinate]
- IC50 [1]: > 200 µM
- IC50 [2]: > 200 µM
- IC50 [3]: > 200 µM
- IC50 [4]: > 200 µM
- IC50 ([5]; read-out: IC50 PC-3M, 48 h): > 200 µM

SMILES: CC(C)(C)OC(=O)N[C@H](Cc1ccccc1Br)C(=O)Oc1ccc(/C=C/C(=O)c2ccc(O)cc2O)cc1 [Compound 15, (E)-4-(3-(2,4-dihydroxyphenyl)-3-oxoprop-1-en-1-yl)phenyl(R)-3-(2-bromophenyl)-2-((tert-butoxycarbonyl)amino)propanoate]
- IC50 [1]: 38.4 µM
- IC50 [2]: 42.6 µM
- IC50 [3]: 27.4 µM
- IC50 [4]: 50.9 µM
- IC50 ([5]; read-out: IC50 PC-3M, 48 h): 30.2 µM

SMILES: CC(C)(C)OC(=O)NC(C(=O)Oc1ccc(/C=C/C(=O)c2ccc(OC(=O)C(NC(=O)OC(C)(C)C)C3CCCCC3)cc2O)cc1)C1CCCCC1 [Compound 8, 4-((E)-3-(4-((R)-2-((tert-butoxycarbonyl)amino)-2-cyclohexylacetoxy)-2-hydroxyphenyl)-3-oxoprop-1-en-1-yl)phenyl(S)-2-((tert-butoxycarbonyl)amino)-2-cyclohexylacetate]
- IC50 [1]: > 200 µM
- IC50 [2]: > 200 µM
- IC50 [3]: > 200 µM
- IC50 [4]: > 200 µM
- IC50 ([5]; read-out: IC50 PC-3M, 48 h): > 200 µM

SMILES: CC(C)(C)OC(=O)NC(C(=O)Oc1ccc(/C=C/C(=O)c2ccc(O)cc2O)cc1)c1ccccc1 [Compound 19, (E)-4-(3-(2,4-dihydroxyphenyl)-3-oxoprop-1-en-1-yl)phenyl(R)-2-((tert-butoxycarbonyl)amino)-2-phenylacetate]
- IC50 [1]: 66.9 µM
- IC50 [2]: 93.8 µM
- IC50 [3]: 74.9 µM
- IC50 [4]: 153 µM
- IC50 ([5]; read-out: IC50 PC-3M, 48 h): 108 µM

SMILES: Cc1ccc(C[C@@H](NC(=O)OC(C)(C)C)C(=O)Oc2ccc(/C=C/C(=O)c3ccc(O)cc3O)cc2)cc1 [Compound 23, (E)-4-(3-(2,4-dihydroxyphenyl)-3-oxoprop-1-en-1-yl)phenyl(R)-2-((tert-butoxycarbonyl)amino)-3-(p-tolyl)propanoate]
- IC50 [1]: 63.5 µM
- IC50 [2]: 80.9 µM
- IC50 [3]: 72.4 µM
- IC50 [4]: 130 µM
- IC50 ([5]; read-out: IC50 PC-3M, 48 h): 83.6 µM

SMILES: CC(C)(C)OC(=O)N[C@H](Cc1ccccc1Cl)C(=O)Oc1ccc(/C=C/C(=O)c2ccc(O)cc2O)cc1 [Compound 17, (E)-4-(3-(2,4-dihydroxyphenyl)-3-oxoprop-1-en-1-yl)phenyl(R)-2-((tert-butoxycarbonyl)amino)-3-(2-chlorophenyl)propanoate]
- IC50 [1]: 33.2 µM
- IC50 [2]: 40.7 µM
- IC50 [3]: 30.4 µM
- IC50 [4]: 60.2 µM
- IC50 ([5]; read-out: IC50 PC-3M (text), 48 h): 37.4 µM
- IC50 ([5]; read-out: IC50 PC-3M, 48 h): 38.1 µM

SMILES: CC(C)(C)OC(=O)N1CCCC1C(=O)Oc1ccc(/C=C/C(=O)c2ccc(OC(=O)[C@@H]3CCCN3C(=O)OC(C)(C)C)cc2O)cc1 (stereo partly drawn) [Compound 4, (E)-2-(4-(3-(4-(((tert-butoxycarbonyl)prolyl)oxy)-2-hydroxyphenyl)-3-oxoprop-1-en-1-yl)phenyl) 1-(tert-butyl) pyrrolidine-1,2-dicarboxylate]
- IC50 [1]: > 200 µM
- IC50 [2]: > 200 µM
- IC50 [3]: > 200 µM
- IC50 [4]: > 200 µM
- IC50 ([5]; read-out: IC50 PC-3M, 48 h): > 200 µM

SMILES: CN(CC(=O)Oc1ccc(/C=C/C(=O)c2ccc(OC(=O)CN(C)C(=O)OC(C)(C)C)cc2O)cc1)C(=O)OC(C)(C)C [Compound 5, (E)-4-(3-(4-((N-(tert-butoxycarbonyl)-N-methylglycyl)oxy)-2-hydroxyphenyl)-3-oxoprop-1-en-1-yl)phenyl N-(tert-butoxycarbonyl)-N-methylglycinate]
- IC50 [1]: > 200 µM
- IC50 [2]: > 200 µM
- IC50 [3]: > 200 µM
- IC50 [4]: > 200 µM
- IC50 ([5]; read-out: IC50 PC-3M, 48 h): > 200 µM

SMILES: CC(NC(=O)OC(C)(C)C)C(=O)Oc1ccc(C=CC(=O)c2ccc(O)cc2O)cc1 [Compound 11, (E)-4-(3-(2,4-dihydroxyphenyl)-3-oxoprop-1-en-1-yl)phenyl(tert-butoxycarbonyl)-D-alaninate]
- IC50 [1]: 87.6 µM
- IC50 [2]: 100 µM
- IC50 [3]: 99.9 µM
- IC50 [4]: 160 µM
- IC50 ([5]; read-out: IC50 PC-3M, 48 h): 122 µM

SMILES: CC(C)(C)OC(=O)N[C@@H](Cc1ccccc1Br)C(=O)Oc1ccc(C(=O)/C=C/c2ccc(OC(=O)[C@@H](Cc3ccccc3Br)NC(=O)OC(C)(C)C)cc2)c(O)c1 [Compound 14, 4-((E)-3-(4-(((S)-3-(2-bromophenyl)-2-((tert-butoxycarbonyl)amino)propanoyl)oxy)-2-hydroxyphenyl)-3-oxoprop-1-en-1-yl)phenyl(R)-3-(2-bromophenyl)-2-((tert-butoxycarbonyl)amino)propanoate]
- IC50 [1]: > 200 µM
- IC50 [2]: > 200 µM
- IC50 [3]: > 200 µM
- IC50 [4]: > 200 µM
- IC50 ([5]; read-out: IC50 PC-3M, 48 h): > 200 µM

SMILES: CC(C)(C)OC(=O)NC(C(=O)Oc1ccc(/C=C/C(=O)c2ccc(OC(=O)C(NC(=O)OC(C)(C)C)c3ccccc3)cc2O)cc1)c1ccccc1 [Compound 18, 4-((E)-3-(4-((S)-2-((tert-butoxycarbonyl)amino)-2-phenylacetoxy)-2-hydroxyphenyl)-3-oxoprop-1-en-1-yl)phenyl(R)-2-((tert-butoxycarbonyl)amino)-2-phenylacetate]
- IC50 [1]: > 200 µM
- IC50 [2]: > 200 µM
- IC50 [3]: > 200 µM
- IC50 [4]: > 200 µM
- IC50 ([5]; read-out: IC50 PC-3M, 48 h): > 200 µM

SMILES: CC(C)(C)OC(=O)NC(CCc1ccccc1)C(=O)Oc1ccc(C(=O)/C=C/c2ccc(OC(=O)[C@H](CCc3ccccc3)NC(=O)OC(C)(C)C)cc2)c(O)c1 (stereo partly drawn) [Compound 12, 4-((E)-3-(4-((2-((tert-butoxycarbonyl)amino)-4-phenylbutanoyl)oxy)-2-hydroxyphenyl)-3-oxoprop-1-en-1-yl)phenyl(2S)-2-((tert-butoxycarbonyl)amino)-4-phenylbutanoate]
- IC50 [1]: > 200 µM
- IC50 [2]: > 200 µM
- IC50 [3]: > 200 µM
- IC50 [4]: > 200 µM
- IC50 ([5]; read-out: IC50 PC-3M, 48 h): > 200 µM

SMILES: C[C@H](NC(=O)OC(C)(C)C)C(=O)Oc1ccc(C(=O)/C=C/c2ccc(OC(=O)[C@@H](C)NC(=O)OC(C)(C)C)cc2)c(O)c1 [Compound 10, 4-((E)-3-(4-(((tert-butoxycarbonyl)-D-alanyl)oxy)phenyl)acryloyl)-3-hydroxyphenyl (tert-butoxycarbonyl)-L-alaninate]
- IC50 [1]: > 200 µM
- IC50 [2]: > 200 µM
- IC50 [3]: > 200 µM
- IC50 [4]: > 200 µM
- IC50 ([5]; read-out: IC50 PC-3M, 48 h): > 200 µM

SMILES: CC(C)(C)OC(=O)NC(C(=O)Oc1ccc(/C=C/C(=O)c2ccc(O)cc2O)cc1)C1CCCC1 [Compound 7, (E)-4-(3-(2,4-dihydroxyphenyl)-3-oxoprop-1-en-1-yl)phenyl(R)-2-((tert-butoxycarbonyl)amino)-2-cyclopentylacetate]
- IC50 [1]: 27.9 µM
- IC50 [2]: 27.4 µM
- IC50 [3]: 28.7 µM
- IC50 [4]: 29.8 µM
- IC50 ([5]; read-out: IC50 PC-3M, 48 h): 33.2 µM

SMILES: CC(C)(C)OC(=O)N[C@@H](Cc1ccccc1Cl)C(=O)Oc1ccc(C(=O)/C=C/c2ccc(OC(=O)[C@@H](Cc3ccccc3Cl)NC(=O)OC(C)(C)C)cc2)c(O)c1 [Compound 16, 4-((E)-3-(4-(((S)-2-((tert-butoxycarbonyl)amino)-3-(2-chlorophenyl)propanoyl)oxy)-2-hydroxyphenyl)-3-oxoprop-1-en-1-yl)phenyl(R)-2-((tert-butoxycarbonyl)amino)-3-(2-chlorophenyl)propanoate]
- IC50 [1]: > 200 µM
- IC50 [2]: > 200 µM
- IC50 [3]: > 200 µM
- IC50 [4]: > 200 µM
- IC50 ([5]; read-out: IC50 PC-3M, 48 h): > 200 µM

SMILES: CC(C)[C@H](NC(=O)OC(C)(C)C)C(=O)Oc1ccc(/C=C/C(=O)c2ccc(OC(=O)[C@@H](NC(=O)OC(C)(C)C)C(C)C)cc2O)cc1 [Compound 3, (E)-4-(3-(4-(((tert-butoxycarbonyl)valyl)oxy)-2-hydroxyphenyl)-3-oxoprop-1-en-1-yl)phenyl (tert-butoxycarbonyl)valinate]
- IC50 [1]: > 200 µM
- IC50 [2]: > 200 µM
- IC50 [3]: > 200 µM
- IC50 [4]: > 200 µM
- IC50 ([5]; read-out: IC50 PC-3M, 48 h): > 200 µM

SMILES: CCC(C)CC(NC(=O)OC(C)(C)C)C(=O)Oc1ccc(/C=C/C(=O)c2ccc(OC(=O)C(CC(C)CC)NC(=O)OC(C)(C)C)cc2O)cc1 (stereo not drawn) [Compound 2, (E)-4-(3-(4-((2-((tert-butoxycarbonyl)amino)-4-methylhexanoyl)oxy)-2-hydroxyphenyl)-3-oxoprop-1-en-1-yl)phenyl 2-((tert-butoxycarbonyl)amino)-4-methylhexanoate]
- IC50 [1]: > 200 µM
- IC50 [2]: > 200 µM
- IC50 [3]: > 200 µM
- IC50 [4]: > 200 µM
- IC50 ([5]; read-out: IC50 PC-3M, 48 h): > 200 µM

SMILES: CC(C)(C)OC(=O)NC(C(=O)Oc1ccc(/C=C/C(=O)c2ccc(OC(=O)C(NC(=O)OC(C)(C)C)C3CCCC3)cc2O)cc1)C1CCCC1 [Compound 6, 4-((E)-3-(4-((S)-2-((tert-butoxycarbonyl)amino)-2-cyclopentylacetoxy)-2-hydroxyphenyl)-3-oxoprop-1-en-1-yl)phenyl(R)-2-((tert-butoxycarbonyl)amino)-2-cyclopentylacetate]
- IC50 [1]: > 200 µM
- IC50 [2]: > 200 µM
- IC50 [3]: > 200 µM
- IC50 [4]: > 200 µM
- IC50 ([5]; read-out: IC50 PC-3M, 48 h): > 200 µM

SMILES: CC(C)(C)OC(=O)NC(Cc1ccccc1)C(=O)Oc1ccc(/C=C/C(=O)c2ccc(O)cc2O)cc1 [Compound 21, (E)-4-(3-(2,4-dihydroxyphenyl)-3-oxoprop-1-en-1-yl)phenyl(tert-butoxycarbonyl)-D-phenylalaninate]
- IC50 [1]: 45.3 µM
- IC50 [2]: 60.2 µM
- IC50 [3]: 66.5 µM
- IC50 [4]: 75.7 µM
- IC50 ([5]; read-out: IC50 PC-3M, 48 h): 87.5 µM
